Assay results taken from patent US6617440B1, “Myostatin regulatory region, nucleotide sequence determination and methods for its use” (Pfizer, Inc., priority 1999, dated 2003).

Experiments:
C2C12 muscle cells = assay: Expression of porcine GHRH from a myostatin promoter vector transiently transfected into C2C12 muscle cells; type: cell-based, murine; settings: transient transfection, compared with a CMV promoter
From the text: Direct injection into muscle of DNA plasmids with muscle specific or constitutive promoters results in expression of the gene under control of that promoter. A vector utilizing the murine 2.5 kb myostatin promoter to drive expression of porcine growth hormone releasing hormone (GHRH) was constructed. […] In accordance with the present invention, the construct may be directly introduced into a host by direct injection of naked DNA.

[1] = system: luciferase reporter gene in C2C12 cells; assay: Transient transfection luciferase reporter assay of myostatin promoter fragments; type: cell-based, murine; settings: normalized against Renilla luciferase activity
Protocol: C2C12 are murine muscle cell lines (ATCC #CRL-1772). These cells were maintained in standard culture media at 37° C.
The 1.8 kb and 2.5 kb myostatin promoter fragments and additional subclones of 320 bp and 901 bp proximal to the myostatin protein coding region were placed into the multicloning site of the pGL3 basic vector (Promega) 5′ to the coding sequence for luciferase. In this vector, the luciferase gene lacks a promoter, and, consequently, is under the control of any promoter cloned upstream of it. These plasmid vectors were used to transiently transfect C2C12 cells, using Fugene (Boehringer Mannheim) as a carrier to introduce the plasmid into the cells. The cell cultures were grown at 37° C., 5% CO2, in DMEM, and luciferase activity was measured using a commercial kit (Promega Luciferase Assay System, E150).
The ability of the various fragments of the murine myostatin promoter region to control expression of the luciferase reporter gene in transient transfection assays is shown in FIG. 2. In each experiment, C2C12 cells were co-transfected with a second vector that employs a CMV promotor to express constitutively a Renilla luciferase gene (pRL-CMV, Promega). Values presented for the myostatin promoter constructs were all normalized against Renilla luciferase activity.

2.5 kb fragment: 2482 bp DNA fragment immediately 5' to the murine myostatin gene, the murine myostatin promoter (SEQ ID NO: 1)
expression of GHRH detected in culture supernatants (C2C12 muscle cells): levels similar to those found using a CMV promoter
transcriptional activity (luciferase reporter expression), in words [1]: strongest promoter of those tested
